Consider 32 compounds from patent US20090105305A1, “Therapeutic Agents - 550” (AstraZeneca AB, priority 2006, published 2009).

The term inhibition denotes the change of the read-out against control, counted positive when it falls. A word on the IC50: it is the midpoint of a concentration-inhibition curve.

Structures are written as SMILES.

The assay deals with T1, human Fatty Acid Synthase (Homo sapiens, UniProt P49327).
T1 construct: made in house
The assay is described as follows: Human FAS enzyme assay (decrease in NADPH fluorescence). The format is biochemical. Particulars: for IC50s in the range of about 0.001 μM to about 30 μM: compounds excluded from the claims by proviso; for inhibition at 100 µM: % inhibition at a concentration of 100 micromolar; for IC50: unit inferred. The method in brief:
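Readout: decrease in NADPH fluorescence (340 nm ex, 460 nm em) after 60 min at RT, background-subtracted against a read taken before substrate. Substrate mix contained 500 μM malonyl-CoA and 150 μM acetyl-CoA. It was added after 15 min enzyme (0.4 μg in-house human FAS)–compound–NADPH preincubation in Tris pH 7.5 buffer; % inhibition was fitted to IC50.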

T1 sequence (P49327 whole entry): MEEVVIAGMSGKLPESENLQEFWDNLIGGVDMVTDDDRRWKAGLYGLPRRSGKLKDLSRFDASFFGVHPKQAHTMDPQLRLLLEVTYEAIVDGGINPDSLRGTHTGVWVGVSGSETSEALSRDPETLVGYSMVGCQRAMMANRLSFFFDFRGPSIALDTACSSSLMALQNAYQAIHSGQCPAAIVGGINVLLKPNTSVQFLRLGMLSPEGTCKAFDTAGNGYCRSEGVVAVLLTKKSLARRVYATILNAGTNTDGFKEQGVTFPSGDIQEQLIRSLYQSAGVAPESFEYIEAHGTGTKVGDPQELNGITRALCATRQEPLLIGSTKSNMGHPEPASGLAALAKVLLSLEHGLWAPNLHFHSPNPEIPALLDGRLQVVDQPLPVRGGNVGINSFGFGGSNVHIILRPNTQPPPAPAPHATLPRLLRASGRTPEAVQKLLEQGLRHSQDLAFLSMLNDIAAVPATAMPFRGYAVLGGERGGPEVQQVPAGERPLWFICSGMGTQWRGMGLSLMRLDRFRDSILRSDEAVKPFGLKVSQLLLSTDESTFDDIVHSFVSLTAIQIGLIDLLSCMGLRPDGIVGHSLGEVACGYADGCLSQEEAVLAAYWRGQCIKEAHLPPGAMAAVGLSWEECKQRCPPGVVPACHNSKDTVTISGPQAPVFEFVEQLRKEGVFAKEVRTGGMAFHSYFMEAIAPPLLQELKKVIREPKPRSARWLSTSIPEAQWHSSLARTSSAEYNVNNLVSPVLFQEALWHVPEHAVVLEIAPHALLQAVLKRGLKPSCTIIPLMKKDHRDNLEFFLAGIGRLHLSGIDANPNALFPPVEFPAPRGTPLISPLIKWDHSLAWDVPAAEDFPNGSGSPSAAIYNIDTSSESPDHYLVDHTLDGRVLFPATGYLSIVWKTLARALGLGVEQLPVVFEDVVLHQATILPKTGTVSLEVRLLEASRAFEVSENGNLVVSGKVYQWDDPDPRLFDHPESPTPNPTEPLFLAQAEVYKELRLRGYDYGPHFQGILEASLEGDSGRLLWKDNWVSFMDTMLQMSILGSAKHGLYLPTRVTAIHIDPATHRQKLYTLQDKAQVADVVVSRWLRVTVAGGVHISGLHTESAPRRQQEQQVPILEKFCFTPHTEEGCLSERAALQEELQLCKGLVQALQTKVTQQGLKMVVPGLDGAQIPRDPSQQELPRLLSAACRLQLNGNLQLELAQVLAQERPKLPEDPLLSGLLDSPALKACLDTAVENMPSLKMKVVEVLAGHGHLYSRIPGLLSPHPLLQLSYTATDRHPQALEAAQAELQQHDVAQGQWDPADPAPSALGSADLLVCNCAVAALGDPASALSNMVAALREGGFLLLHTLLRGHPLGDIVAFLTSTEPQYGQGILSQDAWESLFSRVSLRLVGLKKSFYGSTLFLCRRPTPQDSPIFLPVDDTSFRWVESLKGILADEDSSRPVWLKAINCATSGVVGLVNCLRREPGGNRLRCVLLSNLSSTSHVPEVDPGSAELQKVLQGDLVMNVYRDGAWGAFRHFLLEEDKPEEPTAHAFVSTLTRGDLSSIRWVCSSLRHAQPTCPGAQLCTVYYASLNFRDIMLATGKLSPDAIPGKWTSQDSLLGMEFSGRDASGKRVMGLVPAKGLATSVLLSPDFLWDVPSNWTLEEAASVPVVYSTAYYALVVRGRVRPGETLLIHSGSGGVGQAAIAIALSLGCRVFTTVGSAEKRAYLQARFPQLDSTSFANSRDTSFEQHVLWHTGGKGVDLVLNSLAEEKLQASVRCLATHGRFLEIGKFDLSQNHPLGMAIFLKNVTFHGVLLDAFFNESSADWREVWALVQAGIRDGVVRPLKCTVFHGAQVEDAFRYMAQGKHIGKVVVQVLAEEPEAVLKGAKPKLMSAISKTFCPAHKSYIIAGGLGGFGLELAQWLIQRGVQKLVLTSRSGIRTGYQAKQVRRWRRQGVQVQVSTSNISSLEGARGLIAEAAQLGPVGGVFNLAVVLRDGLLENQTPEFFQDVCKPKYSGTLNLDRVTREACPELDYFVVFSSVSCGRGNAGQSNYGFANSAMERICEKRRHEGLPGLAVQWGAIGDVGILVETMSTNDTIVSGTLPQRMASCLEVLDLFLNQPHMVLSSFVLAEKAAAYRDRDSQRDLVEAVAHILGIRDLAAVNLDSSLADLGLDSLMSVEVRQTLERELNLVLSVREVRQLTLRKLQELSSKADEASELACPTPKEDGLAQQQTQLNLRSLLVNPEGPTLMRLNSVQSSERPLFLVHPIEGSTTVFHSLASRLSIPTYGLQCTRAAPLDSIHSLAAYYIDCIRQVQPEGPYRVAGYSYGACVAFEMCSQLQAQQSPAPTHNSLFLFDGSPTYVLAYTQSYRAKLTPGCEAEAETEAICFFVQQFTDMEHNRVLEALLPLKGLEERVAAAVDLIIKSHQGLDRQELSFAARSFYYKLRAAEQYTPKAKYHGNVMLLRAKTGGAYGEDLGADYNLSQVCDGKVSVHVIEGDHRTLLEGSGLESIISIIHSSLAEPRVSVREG

For the compound `Cc1ccc(C(=O)N2CCC(c3cccc(F)c3)CC2)cc1NS(C)(=O)=O` [N-[5-[4-(3-fluorophenyl)piperidine-1-carbonyl]-2-methylphenyl]methanesulfonamide], the “IC50s in the range of about 0.001 μM to about 30 μM” value (“IC50s in the range” below) is listed as “do not have IC50s in the range of about 0.001 μM to about 30 μM”. For the compound `Cc1ccc(C(=O)N2CCC(c3ccc(C#N)cc3)CC2)cc1NS(=O)(=O)CCCO` [Example 205, N-[5-[4-(4-cyanophenyl)piperidine-1-carbonyl]-2-methylphenyl]-3-hydroxypropane-1-sulfonamide], the inhibition at 100 µM stood at 75%. On the same count and under the same terms, with `COC(=O)CS(=O)(=O)NCc1ccc(C2CCN(C(=O)c3ccc(C)c(NS(C)(=O)=O)c3)CC2)cc1` [Example 245, Methyl 2-[[4-[1-(3-methanesulfonamido-4-methylbenzoyl)piperidin-4-yl]phenyl]methylsulfamoyl]acetate] the figure was 104%; with `CCC(C)S(=O)(=O)Nc1cc(C(=O)N2CCC(c3ccc(C#N)cc3)CC2)ccc1C` (racemic) [Example 18, (RS)—N-[5-[4-(4-cyanophenyl)piperidine-1-carbonyl]-2-methyl-phenyl]butane-2-sulfonamide], 92%. As to `CS(=O)(=O)Nc1cc(C(=O)N2CCC(c3ccc(C#N)cc3)CC2)ccc1OC(F)(F)F` [N-[5-[4-(4-cyanophenyl)piperidine-1-carbonyl]-2-(trifluoromethoxy)phenyl]methanesulfonamide], the “IC50s in the range” value is on record as “do not have IC50s in the range of about 0.001 μM to about 30 μM”. Turning to `Cc1ccc(C(=O)N2CCC(c3ccc(C#N)cc3)CC2)cc1NS(=O)(=O)c1ccc(Cl)nc1` [Example 90, 6-chloro-N-[5-[4-(4-cyanophenyl)piperidine-1-carbonyl]-2-methyl-phenyl]pyridine-3-sulfonamide], the inhibition at 100 µM came to 79%.

With `Cc1ccc(C(=O)N2CCC(c3ccc(S(=O)(=O)N(C)C)cc3)CC2)cc1NS(C)(=O)=O` [4-[1-(3-methanesulfonamido-4-methylbenzoyl)piperidin-4-yl]-N,N-dimethylbenzenesulfonamide], the “IC50s in the range” value is given as “do not have IC50s in the range of about 0.001 μM to about 30 μM”. The compound `Cc1ccc(C(=O)N2CCC(c3ccc(CCC(=O)N(C)C)cc3)CC2)cc1NS(C)(=O)=O` [Example 249, 3-[4-[1-(3-methanesulfonamido-4-methylbenzoyl)piperidin-4-yl]phenyl]-N,N-dimethylpropanamide] came in with an IC50 of 515 nM. For `Cc1ccc(NS(=O)(=O)CCc2ccccc2)cc1C(=O)N1CCC(c2ccc(C#N)cc2)CC1` [Example 58, N-[3-[4-(4-cyanophenyl)piperidine-1-carbonyl]-4-methyl-phenyl]-2-phenyl-ethanesulfonamide], the inhibition at 100 µM was 92%. In the case of `COc1ccc(NS(C)(=O)=O)cc1C(=O)N1CCC(c2ccc(C#N)cc2)CC1` [Example 197, N-[3-[4-(4-cyanophenyl)piperidine-1-carbonyl]-4-methoxyphenyl]methanesulfonamide], the inhibition at 100 µM came out at 71%. As to `Cc1ccc(C(=O)N2CCC(c3ccc(C#N)cc3)CC2)cc1NS(=O)(=O)Cc1ccc(F)cc1F` [Example 61, N-[5-[4-(4-cyanophenyl)piperidine-1-carbonyl]-2-methyl-phenyl]-1-(2,4-difluorophenyl)methanesulfonamide], the inhibition at 100 µM was 93%. On the same count and under the same terms, with `Cc1ccc(NS(=O)(=O)C2CC2)cc1C(=O)N1CCC(c2ccc(C#N)cc2)CC1` [Example 40, N-[3-[4-(4-cyanophenyl)piperidine-1-carbonyl]-4-methyl-phenyl]cyclopropanesulfonamide] the figure was 89%. As for `Cc1ccc(C(=O)N2CCC(c3cc(F)c(C#N)c(F)c3)CC2)cc1NS(C)(=O)=O` [N-[5-[4-(4-cyano-3,5-difluorophenyl)piperidine-1-carbonyl]-2-methylphenyl]methanesulfonamide], the “IC50s in the range” value is given as “do not have IC50s in the range of about 0.001 μM to about 30 μM”.

On to `C[S+]([O-])c1ccc(C(=O)N2CCC(c3ccc(C#N)cc3)CC2)cc1NS(=O)(=O)Cc1ccccc1` (centres unmarked) [Example 211, N-[5-[4-(4-cyanophenyl)piperidine-1-carbonyl]-2-methylsulfinylphenyl]-1-phenylmethanesulfonamide], for which the inhibition at 100 µM came out at 92%. `Cc1ccc(C(=O)N2CCC(c3ccc(CNC(=O)C(C)C)cc3)CC2)cc1NS(C)(=O)=O` [Example 226, N-[[4-[1-(3-methanesulfonamido-4-methylbenzoyl)piperidin-4-yl]phenyl]methyl]-2-methylpropanamide]: the inhibition at 100 µM was found to be 81%.

For `Cc1ccc(C(=O)N2CCC(c3ccc(C(F)(F)F)cc3)CC2)cc1NS(C)(=O)=O` [Example 157, N-[2-methyl-5-[4-[4-(trifluoromethyl)phenyl]piperidine-1-carbonyl]phenyl]methanesulfonamide], the inhibition at 100 µM was 78%. As to `Cc1ccc(C(=O)N2CCC(c3ccc(C#N)c(C#N)c3)CC2)cc1NS(C)(=O)=O` [N-[5-[4-(3,4-dicyanophenyl)piperidine-1-carbonyl]-2-methylphenyl]methanesulfonamide], the “IC50s in the range” value is on record as “do not have IC50s in the range of about 0.001 μM to about 30 μM”.

With `COCCOCC#Cc1ccc(C2CCN(C(=O)c3ccc(C)c(NS(C)(=O)=O)c3)CC2)cc1` [Example 247, N-[5-[4-[4-[3-(2-methoxyethoxy)prop-1-ynyl]phenyl]piperidine-1-carbonyl]-2-methylphenyl]methanesulfonamide], the IC50 worked out at 1780 nM. For `Cc1cc(C)c(C(=O)N2CCC(c3ccc(C#N)cc3)CC2)cc1NS(=O)(=O)C1CC1` [Example 116, N-[5-[4-(4-cyanophenyl)piperidine-1-carbonyl]-2,4-dimethyl-phenyl]cyclopropanesulfonamide], the inhibition at 100 µM amounted to 92%. For the compound `Cc1ccc(C(=O)N2CCC(O)(c3ccc(Br)cc3)CC2)cc1NS(=O)(=O)Cc1ccccc1` [Example 201, N-[5-[4-(4-bromophenyl)-4-hydroxypiperidine-1-carbonyl]-2-methylphenyl]-1-phenylmethanesulfonamide], the inhibition at 100 µM came out at 68%. For the compound `Cc1ccc(C(=O)N2CCC(c3ccc(C#N)cc3)CC2)cc1NS(=O)(=O)C1CCN(S(=O)(=O)C(C)C)CC1` [Example 119, N-[5-[4-(4-cyanophenyl)piperidine-1-carbonyl]-2-methyl-phenyl]-1-propan-2-ylsulfonyl-piperidine-4-sulfonamide], the inhibition at 100 µM came out at 94%. As to `Cc1ccc(C(=O)N2CCC(c3ccc(C#N)cc3)CC2)cc1NS(=O)(=O)CCCNS(=O)(=O)C(C)C` [Example 131, N-[5-[4-(4-cyanophenyl)piperidine-1-carbonyl]-2-methyl-phenyl]-3-(propan-2-ylsulfonylamino)propane-1-sulfonamide], the inhibition at 100 µM is 91%.

`Cc1ccc(C(=O)N2CCC(c3cccc(Br)c3)CC2)cc1NS(C)(=O)=O` [N-[5-[4-(3-bromophenyl)piperidine-1-carbonyl]-2-methylphenyl]methanesulfonamide]: the “IC50s in the range” value is on record as “do not have IC50s in the range of about 0.001 μM to about 30 μM”.

For `Cc1ccc(C(=O)N2CCC(c3ccc(C#N)cc3)CC2)cc1NS(=O)(=O)c1ccc(N(C)C)nc1` [Example 96, N-[5-[4-(4-cyanophenyl)piperidine-1-carbonyl]-2-methyl-phenyl]-6-dimethylamino-pyridine-3-sulfonamide], the inhibition at 100 µM was 98%. Turning to `Cc1ccc(C(=O)N2CCC(c3ccc(C#N)cc3)CC2)cc1NS(=O)(=O)CC1CCCCC1` [Example 15, N-[5-[4-(4-cyanophenyl)piperidine-1-carbonyl]-2-methyl-phenyl]-1-cyclohexyl-methanesulfonamide], the inhibition at 100 µM was found to be 93%. Take `CCS(=O)(=O)Nc1ccc(C)c(C(=O)N2CCC(c3ccc(C#N)cc3)CC2)c1` [Example 36, N-[3-[4-(4-cyanophenyl)piperidine-1-carbonyl]-4-methyl-phenyl]ethanesulfonamide]: the inhibition at 100 µM is 88%. Turning to `N#Cc1ccc(C2CCN(C(=O)c3ccc(Cl)c(NS(=O)(=O)c4ccc(Cl)cc4)c3)CC2)cc1` [Example 192, 4-chloro-N-[2-chloro-5-[4-(4-cyanophenyl)piperidine-1-carbonyl]phenyl]benzene-sulfonamide], the inhibition at 100 µM was found to be 67%.

`Cc1ccc(C(=O)N2CCC(c3ccc(C(N)=O)cc3)CC2)cc1NS(C)(=O)=O` [Example 112, 4-[1-(3-methanesulfonamido-4-methyl-benzoyl)-4-piperidyl]benzamide]: the inhibition at 100 µM worked out at 79%. Turning to `Cc1ccc(Oc2ccc(C3CCN(C(=O)c4ccc(C)c(NS(C)(=O)=O)c4)CC3)cc2)nn1` [Example 229, N-[2-methyl-5-[4-[4-(6-methylpyridazin-3-yl)oxyphenyl]piperidine-1-carbonyl]phenyl]methanesulfonamide], the inhibition at 100 µM was determined as 80.2%. In the case of `Cc1ccc(C(=O)N2CCC(c3ccc(C#N)cc3C)CC2)cc1NS(C)(=O)=O` [N-[5-[4-(4-cyano-2-methylphenyl)piperidine-1-carbonyl]-2-methylphenyl]methanesulfonamide], the “IC50s in the range” value is listed as “do not have IC50s in the range of about 0.001 μM to about 30 μM”.

With `Cc1ccc(C(=O)N2CCC(c3ccc(C#N)cc3)CC2)cc1NS(=O)(=O)CCCN1CCOCC1` [Example 67, N-[5-[4-(4-cyanophenyl)piperidine-1-carbonyl]-2-methyl-phenyl]-3-morpholin-4-yl-propane-1-sulfonamide], the inhibition at 100 µM was determined as 92%. Still for that read-out and setting: with `Cc1ccc(C(=O)N2CCC(c3ccc(C#N)cc3)CC2)cc1NS(=O)(=O)CC(F)(F)F` [Example 60, N-[5-[4-(4-cyanophenyl)piperidine-1-carbonyl]-2-methyl-phenyl]-2,2,2-trifluoro-ethanesulfonamide] the figure was 83%.
